Like-named read-outs stand apart in the source and are kept apart here. Square brackets hold non-standard residues; d marks the D form. Ends that are not written are not given here. Peptide text beside a SMILES is read from it. * marks the point of attachment. Biotin = O=C1N[C@H]2[C@H](CS[C@H]2CCCCC(=O)*)N1; pY = N[C@@H](Cc1ccc(OP(=O)(O)O)cc1)C(=O)O; pS = N[C@@H](COP(=O)(O)O)C(=O)O
Key:
radixin FERM domain = molecular target: T1, radixin FERM domain (Mus musculus, UniProt P26043); test: Surface plasmon resonance, radixin FERM domain injected over immobilized peptides; format: binding; conditions: 37°; for Kd: equilibrium binding; for Binding of radixin FERM domain (in words): non-phosphorylated peptides, Fig. 1a, b
T1 construct: mouse cDNA encoding amino acid residues 1–310, which are 100% identical between mouse and human; GST (cleaved yes); made in house; host or cells: E. coli Rosetta (DE3) pLysS
T1 sequence (P26043 1-310): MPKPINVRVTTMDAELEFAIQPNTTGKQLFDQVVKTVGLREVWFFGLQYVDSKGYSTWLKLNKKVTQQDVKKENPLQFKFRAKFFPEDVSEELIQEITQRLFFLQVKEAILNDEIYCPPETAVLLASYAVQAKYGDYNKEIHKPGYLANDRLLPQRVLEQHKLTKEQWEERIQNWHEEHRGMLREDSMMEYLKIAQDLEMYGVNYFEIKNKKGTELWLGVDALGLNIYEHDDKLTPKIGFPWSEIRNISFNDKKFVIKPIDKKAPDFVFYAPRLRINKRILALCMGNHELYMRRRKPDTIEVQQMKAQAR
Text: (§1) Peptides representing human sequences and biotinylated at the N terminus were obtained from Peptide Protein Research Ltd (Hampshire, UK): CD5 pSDpSDpY, PDNSpSDpSDpYDLHGAQRL; CD5 SDSDY, PDNSSDSDYDLHGAQRL, CD6 pSDpSDpY, GpSDpSDpYEHYDFSAQ; CD6 SDSDY: GSDSDYEHYDFSAQ; control peptide (CD5), HVDNEYSQPPRNS; ICAM‐2 (NP_001093259 FERM binding site (amino acids 251–275): […].16
Recombinant GST‐tagged FERM domain of radixin constructed from mouse cDNA encoding amino acid residues 1–310, which are 100% identical between mouse and human in the pET49b(+) vector was kindly provided by Toshio Hakoshima (Nara Institute of Science and Technology, Japan).16 Radixin FERM was expressed in Rosetta (DE3) pLysS competent cells (Novagen, Madison, WI) and affinity purified using Glutathione Sepharose 4B (GE Healthcare, Chicago, IL). The GST tag was cleaved with HRV 3C protease (Novagen). Cleaved radixin FERM domains were then further purified using size exclusion chromatography.
For surface plasmon resonance analysis, CD5 pSDpSDpY, CD5 SDSDY, CD6 pSDpSDpY and CD6 SDSDY and ICAM‐2 peptides were immobilized on streptavidin‐coated CM5 chips in a BIAcore 3000 machine. Radixin FERM was injected over the immobilized peptides at 37°. Background signals of radixin FERM over a streptavidin‐coated flow cell were subtracted and equilibrium binding data were fitted using a 1 : 1 Langmuir binding model using GRAPHPAD PRISM 7 software.

[1] = test system: ERM proteins and NHE‐RF 1 and 2; test: Pulldown from Jurkat T-cell lysates with immobilized peptides and mass spectrometry: five ERM and NHE-RF proteins together; format: binding
Text: as §1
Pulldowns and mass spectrometry have been described elsewhere.6 Briefly, peptides CD5 pSDpSDpY, CD6 pSDpSDpY or a control peptide derived from a region around a more proximal cytoplasmic tyrosine of CD5 were immobilized on magnetic beads and used to isolate interacting proteins from Jurkat T‐cell lysates. Interacting proteins were processed, then digested on a filter, and the peptides were loaded onto the Ultimate 300 RSLCnano high‐performance liquid chromatography (Dionex, Sunnyvale, CA) ‐tandem mass spectrometry Q Exactive Orbitrap machine using a 25 cm by 75 μm inner diameter picotip analytical column (New Objective, Woburn, MA) in the central proteomics facilities at the Sir William Dunn School of Pathology, University of Oxford. Spectra analysis was conducted using the MASCOT search engine.17

[2] = molecular target: T2, radixin FERM domain (amino acid residues 1-310) (mouse, UniProt P26043 1-310); test: SPR; biotinylated peptides immobilized on streptavidin-coated CM5 chips, BIAcore 3000; radixin FERM injected at 37°; streptavidin flow cell subtracted; equilibrium binding fitted with a 1:1 Langmuir model; conditions: both partners purified
T2 construct: also called Recombinant monomeric radixin FERM; FERM domain of radixin; source: E. coli Rosetta (DE3) pLysS, purified (Glutathione Sepharose 4B, HRV 3C cleavage, size exclusion chromatography)
T2 sequence (P26043 1-310): as above

[3] = SPR BIAcore 3000, biotinylated peptides on streptavidin-coated CM5 chip, 1:1 Langmuir fit, CD5 and CD6: three experiments, read-out: KD

**Q.** C[C@H](NC(=O)[C@H](CO)NC(=O)[C@H](Cc1ccccc1)NC(=O)[C@H](CC(=O)O)NC(=O)[C@H](Cc1ccc(O)cc1)NC(=O)[C@H](Cc1c[nH]cn1)NC(=O)[C@H](CCC(=O)O)NC(=O)[C@H](Cc1ccc(OP(=O)(O)O)cc1)NC(=O)[C@H](CC(=O)O)NC(=O)[C@H](COP(=O)(O)O)NC(=O)[C@H](CC(=O)O)NC(=O)[C@H](COP(=O)(O)O)NC(=O)CN)C(=O)N[C@@H](CCC(N)=O)C(=O)O [CD6 pSDpSDpY] (H-G[pS]D[pS]D[pY]EHYDFSAQ-OH) was tested. Which Kd (radixin FERM domain; [3]) did it give?
**A.** 500 nM

**Q.** How did the “Binding of radixin FERM domain (in words)” value (radixin FERM domain; SPR) turn out when GSDSDYEHYDFSAQ [CD6 SDSDY] was run?
**A.** weak and did not reach saturation

**Q.** PDNSSDSDYDLHGAQRL [CD5 SDSDY] was tested. Which “Binding of radixin FERM domain (in words)” value (radixin FERM domain; SPR) did it give?
**A.** weak and did not reach saturation

**Q.** For CSCC[C@H](NC(=O)[C@H](CCCNC(=N)N)NC(=O)[C@H](CCC(N)=O)NC(=O)[C@H](CCC(N)=O)NC(=O)[C@H](CCCNC(=N)N)NC(=O)[C@H](CC(C)C)NC(=O)[C@H](Cc1c[nH]cn1)NC(=O)CCCC[C@@H]1SC[C@@H]2NC(=O)N[C@@H]21)C(=O)NCC(=O)N[C@H](C(=O)N[C@@H](Cc1ccc(O)cc1)C(=O)NCC(=O)N[C@H](C(=O)N[C@@H](CCCNC(=N)N)C(=O)N[C@@H](C)C(=O)N[C@@H](C)C(=O)N[C@@H](Cc1c[nH]c2ccccc12)C(=O)N[C@@H](CCCNC(=N)N)C(=O)N[C@@H](CCCNC(=N)N)C(=O)N[C@@H](CC(C)C)C(=O)N1CCC[C@H]1C(=O)N[C@@H](CCC(N)=O)C(=O)N[C@@H](C)C(=O)N[C@@H](Cc1ccccc1)C(=O)N[C@@H](CCCNC(=N)N)C(=O)N1CCC[C@H]1C(=O)O)C(C)C)[C@@H](C)O [ICAM-2, reference compound] (Biotin-HLRQQRMGTYGVRAAWRRLPQAFRP-OH; N-terminus and C-terminus assumed), which Kd (radixin FERM domain; [3]) is on record?
**A.** ≥ 200 nM

**Q.** Which Kd (radixin FERM domain; [3]) does the source give for CC(C)C[C@H](NC(=O)[C@H](CCCNC(=N)N)NC(=O)[C@H](CCC(N)=O)NC(=O)[C@H](C)NC(=O)CNC(=O)[C@H](Cc1c[nH]cn1)NC(=O)[C@H](CC(C)C)NC(=O)[C@H](CC(=O)O)NC(=O)[C@H](Cc1ccc(OP(=O)(O)O)cc1)NC(=O)[C@H](CC(=O)O)NC(=O)[C@H](COP(=O)(O)O)NC(=O)[C@H](CC(=O)O)NC(=O)[C@H](COP(=O)(O)O)NC(=O)[C@H](CO)NC(=O)[C@H](CC(N)=O)NC(=O)[C@H](CC(=O)O)NC(=O)[C@@H]1CCCN1)C(=O)O [CD5 pSDpSDpY] (H-PDNS[pS]D[pS]D[pY]DLHGAQRL-OH) here?
**A.** 1000 to 2000 nM

**Q.** What about the Kd (radixin FERM domain; SPR, Fig. 1 panel c, peptides compared with ICAM-2, read-out: KD (Fig. 1c)) of the same molecule?
**A.** 1000 nM

**Q.** Which “Isolation of the five proteins (in words)” value [1] does the source give for “HVDNEYSQPPRNS [control peptide, control peptide derived from a region around a more proximal cytoplasmic tyrosine of CD5]” here?
**A.** not identified

B1: CD6 pSDpSDpY peptide (peptide)
peptide: Biotin-G[pS]D[pS]D[pY]EHYDFSAQ
notes: also called phosphorylated CD6 SDSDY peptide; source: synthetic peptide; bought: Peptide Protein Research Ltd
**Q.** For B1, which Kd [2] is on record?
**A.** 500 to 2000 nM
